# Activity calls are given as the source filed them.
# Assays:
# [1] = target: Peroxisome proliferator-activated receptor gamma/Nuclear receptor coactivator 3 (Homo sapiens, UniProt P37231); format: functional;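 further: agonist potency for raising coactivator recruitment to the receptor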
# [2] = target: Peroxisome proliferator-activated receptor gamma/Nuclear receptor coactivator 1 (Homo sapiens, UniProt P37231); format: functional;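 further: agonist potency as compounds enhance coactivator SRC-1 recruitment to PPARgamma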
# [3] = target: Peroxisome proliferator-activated receptor gamma/Nuclear receptor coactivator 2 (Homo sapiens, UniProt P37231); format: functional;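 further: agonist potency for raising coactivator recruitment to the receptor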
# [4] = target: Cytochrome P450 2C9 (Homo sapiens, UniProt P11712); conditions: Potency
# Sequence of Cytochrome P450 2C9 (P11712 whole entry): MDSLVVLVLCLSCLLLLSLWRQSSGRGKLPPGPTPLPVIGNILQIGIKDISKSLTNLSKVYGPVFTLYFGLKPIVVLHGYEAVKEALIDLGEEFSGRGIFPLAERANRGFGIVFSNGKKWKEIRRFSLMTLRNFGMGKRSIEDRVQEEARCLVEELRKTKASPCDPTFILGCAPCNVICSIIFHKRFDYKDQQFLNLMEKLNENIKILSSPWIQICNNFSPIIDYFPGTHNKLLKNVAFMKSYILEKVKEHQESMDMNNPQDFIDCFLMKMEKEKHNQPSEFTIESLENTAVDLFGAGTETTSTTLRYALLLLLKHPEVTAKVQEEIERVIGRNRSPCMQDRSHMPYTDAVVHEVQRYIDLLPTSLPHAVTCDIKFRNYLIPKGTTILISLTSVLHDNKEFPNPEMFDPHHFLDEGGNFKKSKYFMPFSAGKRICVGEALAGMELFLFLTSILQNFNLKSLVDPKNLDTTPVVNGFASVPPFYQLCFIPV
# [5] = tested on: Streptococcus; experiment: GAS UMAA2166 growth inhibition – luminescence, BacTiterGlo, counter-screen for streptokinase expression inhibitor project, dose response (AID 1915); format: functional, organism-based;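 further: potency for reduction of bacterial viability or growth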
# [6] = tested on: Streptococcus; experiment: Luminescence Microorganism-Based Dose Response Follow up to Identify Compounds Cytotoxic to Streptococcus. [Related pubchem assays: 1677 (Project Summary), 1915, 1914, 1902 (Retest at Dose), 1900 (Counter Screen), 1662 (Primary HTS)]; format: functional, organism-based
# [7] = target: T1, Streptokinase A (Streptococcus pyogenes serotype M1, UniProt P10520); experiment: viability-normalized secreted streptokinase activity reduction – plasminogen activation absorbance, OD405, dose response (AID 1914); format: functional, Streptococcus pyogenes M1 GAS;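 further: secreted streptokinase activity via plasminogen activation per viability signal from cell pellet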
# T1 sequence (P10520 whole entry): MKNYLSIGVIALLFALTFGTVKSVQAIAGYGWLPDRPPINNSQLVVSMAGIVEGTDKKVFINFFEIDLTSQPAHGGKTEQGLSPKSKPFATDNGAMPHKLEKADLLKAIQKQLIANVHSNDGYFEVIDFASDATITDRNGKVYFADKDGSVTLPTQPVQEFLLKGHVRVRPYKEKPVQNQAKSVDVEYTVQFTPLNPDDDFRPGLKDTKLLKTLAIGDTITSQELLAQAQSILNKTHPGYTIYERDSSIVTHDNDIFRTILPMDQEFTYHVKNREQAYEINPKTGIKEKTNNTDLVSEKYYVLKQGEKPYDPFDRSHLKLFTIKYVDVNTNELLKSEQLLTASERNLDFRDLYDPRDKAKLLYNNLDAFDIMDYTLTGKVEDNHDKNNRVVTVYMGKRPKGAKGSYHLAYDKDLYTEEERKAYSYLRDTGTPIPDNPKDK
# [8] = cells; format: functional, cell-based
# [9] = general cell-killing toxicity readout – plate reader, dry powder samples, cytotoxicity control for PAX8 inhibitor project, dose response (AID 743021); format: functional, cell-based
# [10] = alpha-synuclein stem-loop translation blockers – luminescence, H4 neuroglioblastoma cells, dose confirmation, confirmation (AID 2454); format: functional, cell-based;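 further: H4 neuroglioblastoma cells carrying an alpha-synuclein 5'UTR luciferase reporter; potency for inhibition of the luciferase signal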
# [11] = tested on: BJ; experiment: growth inhibition of engineered Ras-driven BJ cells – cell-based, alamar blue fluorescence, cherrypicked samples, dose response (AID 2631); format: functional; conditions: Homo sapiens;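 further: confirmatory dose-response assay in RAS-dependent BJ fibroblasts engineered with TERT, LT and ST, with cytotoxicity read by fluorescence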
# [12] = Luminescence-based counterscreen assay for KLF5 inhibitors: dose response cell-based high throughput screening assay to identify cytotoxic compounds using the IEC-6 intestinal epithelial cell line. [Related pubchem assays: 1700 (Primary screen.), 1834 (Confirmation screen.), 1858 (Summary AID.), 1905 (Counterscreen.)]; format: functional
# [13] = tested on: Vero; experiment: cells; format: functional, cell-based; conditions: Chlorocebus sabaeus
# [14] = tested on: Vero; experiment: mammalian cell viability reduction – secondary assay, cytotoxicity control for West Nile virus antiviral project, dose response (AID 1650); format: functional; conditions: Chlorocebus sabaeus
# [15] = Luminescence Cell-Based Dose Response HTS to Identify Inhibitors of 5'UTR Stem-Loop Driven Prion Protein mRNA Translation in H4 Neuroglioblastoma Cells. [Related pubchem assays: 1827 (Project Summary), 1813 (Primary HTS)]; format: functional
# [16] = tested on: Vero; experiment: cells; format: functional; conditions: Chlorocebus sabaeus
# [17] = tested on: BJ; experiment: BJ-TERT fibroblast viability loss – cell-based, RAS-independent, luminescence, dose response (AID 1933); format: functional; conditions: Homo sapiens
# [18] = luciferase reporter signal reduction – luminescence, H4-C neuroglioblastoma cells, dose response (AID 2458); format: functional, cell-based;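 further: H4 neuroglioblastoma cells stably carrying a luciferase reporter gene fusion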
# [19] = luciferase reporter signal suppression in cells – H4 neuroglioma cells, luminescence, dose response (AID 1990); format: functional, cell-based
# [20] = HEK-293T viability loss after treatment – luminescence, T-cell screen hits, cytotoxicity control for TCR NF-kB inhibitor project, dose response (AID 489026); format: functional, cell-based;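 further: cells exposed to compound about 14 hours before the viability readout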
# [21] = tested on: BJ; experiment: BJ-TERT-LT-ST fibroblast viability loss – cell-based, RAS-independent, luminescence, dose response (AID 1935); format: functional; conditions: Homo sapiens;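 further: BJ fibroblasts immortalized with TERT plus LT and ST oncogenes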
# [22] = tested on: BJ; experiment: cells; format: functional, cell-based; conditions: Homo sapiens
# [23] = DRD fibroblast viability loss – cell-based, non-viral oncogenic, luminescence, dose response (AID 1934); format: functional; conditions: Homo sapiens
# [24] = target: Paired box protein Pax-8 (Homo sapiens, UniProt Q06710); experiment: PAX8 transcriptional activity inhibition in RMG-I – RMG-I cells, luciferase, cherry-pick, dose response (AID 687027); format: functional, cell-based;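 further: luciferase reporter driven by Pax8 target thyroperoxidase promoter measured by SteadyGlo luminescence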
# Sequence of Paired box protein Pax-8 (Q06710 whole entry): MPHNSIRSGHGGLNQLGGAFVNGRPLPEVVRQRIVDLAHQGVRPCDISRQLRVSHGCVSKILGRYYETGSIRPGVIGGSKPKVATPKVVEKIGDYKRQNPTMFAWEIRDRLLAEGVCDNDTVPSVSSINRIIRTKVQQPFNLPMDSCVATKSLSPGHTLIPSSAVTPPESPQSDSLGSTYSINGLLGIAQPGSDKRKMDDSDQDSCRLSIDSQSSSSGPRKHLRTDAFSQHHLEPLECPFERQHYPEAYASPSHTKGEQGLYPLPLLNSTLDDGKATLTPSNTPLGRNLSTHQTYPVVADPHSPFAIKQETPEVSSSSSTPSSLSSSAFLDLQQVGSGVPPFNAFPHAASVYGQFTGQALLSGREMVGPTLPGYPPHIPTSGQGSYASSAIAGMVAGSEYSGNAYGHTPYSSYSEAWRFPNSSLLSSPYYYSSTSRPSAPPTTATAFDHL
# [25] = alpha-synuclein stem-loop luciferase translation blockers – H4 neuroglioma cells, luminescence, confirmation (AID 1988); format: functional, cell-based
# [26] = target: T2, Zinc finger protein mex-5 (Caenorhabditis elegans, UniProt Q9XUB2); experiment: potency of MEX-5 RNA-binding blockers – biochemical, C. elegans, fluorescence polarization, dose response (AID 1960)
# T2 sequence (Q9XUB2 whole entry): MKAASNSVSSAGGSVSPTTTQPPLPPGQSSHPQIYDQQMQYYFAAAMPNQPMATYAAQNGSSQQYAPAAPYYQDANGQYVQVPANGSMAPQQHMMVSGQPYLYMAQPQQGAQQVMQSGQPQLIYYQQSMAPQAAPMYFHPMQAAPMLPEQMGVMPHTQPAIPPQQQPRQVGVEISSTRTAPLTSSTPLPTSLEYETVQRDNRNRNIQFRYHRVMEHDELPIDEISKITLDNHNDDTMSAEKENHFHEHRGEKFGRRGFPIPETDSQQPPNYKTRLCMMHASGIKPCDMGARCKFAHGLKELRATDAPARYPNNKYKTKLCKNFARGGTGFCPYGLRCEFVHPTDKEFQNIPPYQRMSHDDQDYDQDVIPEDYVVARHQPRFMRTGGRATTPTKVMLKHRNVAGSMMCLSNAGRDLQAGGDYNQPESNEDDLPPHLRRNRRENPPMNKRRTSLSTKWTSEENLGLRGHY
# [27] = target: T3, Polyadenylate-binding protein 1 (Homo sapiens, UniProt P11940); experiment: MLLE domain peptide-binding blockers, IC50 – biochemical, fluorescence polarization, FITC-PAM2 peptide, dose response (AID 602259); format: functional; conditions: read-out: IC50_Mean
# T3 sequence (P11940 whole entry, the tested form may be a part): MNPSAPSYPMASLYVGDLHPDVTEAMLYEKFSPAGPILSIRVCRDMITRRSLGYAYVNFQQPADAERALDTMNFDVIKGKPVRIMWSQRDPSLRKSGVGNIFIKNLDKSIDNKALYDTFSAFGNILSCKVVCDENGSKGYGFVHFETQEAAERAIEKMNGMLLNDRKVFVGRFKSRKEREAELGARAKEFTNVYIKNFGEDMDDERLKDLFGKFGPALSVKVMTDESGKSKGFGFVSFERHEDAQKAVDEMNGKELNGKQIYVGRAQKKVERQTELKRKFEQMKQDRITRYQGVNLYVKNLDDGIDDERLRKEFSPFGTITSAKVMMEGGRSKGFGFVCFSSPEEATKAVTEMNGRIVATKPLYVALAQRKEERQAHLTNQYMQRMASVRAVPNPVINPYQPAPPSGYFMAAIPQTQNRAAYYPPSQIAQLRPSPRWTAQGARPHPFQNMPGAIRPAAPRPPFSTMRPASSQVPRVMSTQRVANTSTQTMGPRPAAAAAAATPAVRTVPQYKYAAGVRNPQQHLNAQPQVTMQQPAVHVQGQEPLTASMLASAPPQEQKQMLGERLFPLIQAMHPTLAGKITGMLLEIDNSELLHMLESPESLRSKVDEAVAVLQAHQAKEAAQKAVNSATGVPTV
# [28] = target: NS3 (Hepatitis C virus, UniProt A3EZJ3); experiment: PubChem AID 2173; design: species or system Hepacivirus hominis
# Sequence of NS3 (A3EZJ3 whole entry): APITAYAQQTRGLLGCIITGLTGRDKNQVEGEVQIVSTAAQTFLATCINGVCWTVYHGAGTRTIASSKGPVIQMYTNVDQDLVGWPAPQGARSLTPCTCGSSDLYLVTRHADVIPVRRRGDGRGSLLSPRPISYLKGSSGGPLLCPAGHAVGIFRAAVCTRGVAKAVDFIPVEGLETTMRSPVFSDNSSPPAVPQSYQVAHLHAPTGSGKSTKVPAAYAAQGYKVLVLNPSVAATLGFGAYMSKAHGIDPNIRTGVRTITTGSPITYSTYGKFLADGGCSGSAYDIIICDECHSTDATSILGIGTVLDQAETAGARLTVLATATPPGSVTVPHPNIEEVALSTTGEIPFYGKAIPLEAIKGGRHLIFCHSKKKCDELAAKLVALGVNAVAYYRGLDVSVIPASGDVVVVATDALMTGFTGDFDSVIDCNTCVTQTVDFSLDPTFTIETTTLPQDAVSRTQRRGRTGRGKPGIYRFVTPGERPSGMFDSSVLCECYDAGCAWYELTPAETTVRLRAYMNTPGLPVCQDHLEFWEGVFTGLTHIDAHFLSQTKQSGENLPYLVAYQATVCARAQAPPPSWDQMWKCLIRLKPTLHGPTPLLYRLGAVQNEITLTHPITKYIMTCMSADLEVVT
# [29] = target: T3, Polyadenylate-binding protein 1; experiment: MLLE binding blockers, Cy5 peptide tracer – biochemical, fluorescence polarization, Cy5-PAM2 peptide, secondary, miRNA deadenylation inhibitor project, dose response (AID 602260); format: functional; conditions: read-out: IC50_Mean
# [30] = target: T4, Estrogen receptor (Homo sapiens, UniProt P03372);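 further: potency for inhibiting coactivator peptide recruitment to the receptor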
# T4 sequence (P03372 whole entry): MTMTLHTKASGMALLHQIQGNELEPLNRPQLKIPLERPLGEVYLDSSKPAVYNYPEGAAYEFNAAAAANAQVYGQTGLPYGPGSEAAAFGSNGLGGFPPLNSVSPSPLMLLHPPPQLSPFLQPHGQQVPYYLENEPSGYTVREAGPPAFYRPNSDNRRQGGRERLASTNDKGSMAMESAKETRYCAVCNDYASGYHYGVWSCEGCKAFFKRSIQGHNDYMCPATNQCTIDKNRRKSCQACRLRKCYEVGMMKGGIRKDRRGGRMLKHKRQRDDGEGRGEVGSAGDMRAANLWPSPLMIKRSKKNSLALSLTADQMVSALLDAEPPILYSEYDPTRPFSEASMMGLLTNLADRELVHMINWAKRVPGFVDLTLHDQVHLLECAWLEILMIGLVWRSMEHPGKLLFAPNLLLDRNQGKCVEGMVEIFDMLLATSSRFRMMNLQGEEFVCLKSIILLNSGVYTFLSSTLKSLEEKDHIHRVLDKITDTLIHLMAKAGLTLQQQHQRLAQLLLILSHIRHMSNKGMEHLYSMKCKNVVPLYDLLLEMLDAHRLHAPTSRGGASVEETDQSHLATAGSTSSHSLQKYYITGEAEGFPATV
# [31] = target: T5, RNA-binding protein pos-1 (Caenorhabditis elegans, UniProt G5EF15); experiment: disruptors of C. elegans POS-1 RNA interaction – biochemical, fluorescence polarization, dose response (AID 1964);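 further: purified POS-1 fused to maltose binding protein made in E. coli; potency of compounds blocking POS-1 binding to fluorescent RNA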
# T5 sequence (G5EF15 whole entry): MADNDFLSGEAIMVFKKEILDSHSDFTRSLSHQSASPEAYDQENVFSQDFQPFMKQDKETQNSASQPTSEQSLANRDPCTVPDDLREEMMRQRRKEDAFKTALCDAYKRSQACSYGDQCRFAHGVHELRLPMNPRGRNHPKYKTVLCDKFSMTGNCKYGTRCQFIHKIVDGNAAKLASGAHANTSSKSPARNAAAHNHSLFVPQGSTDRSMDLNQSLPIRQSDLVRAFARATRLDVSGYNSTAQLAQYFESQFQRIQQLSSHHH
# [32] = target: Cytochrome P450 2D6 (Homo sapiens, UniProt P10635);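 further: CYP2D6 member of a cytochrome P450 panel assay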
# Sequence of Cytochrome P450 2D6 (P10635 whole entry): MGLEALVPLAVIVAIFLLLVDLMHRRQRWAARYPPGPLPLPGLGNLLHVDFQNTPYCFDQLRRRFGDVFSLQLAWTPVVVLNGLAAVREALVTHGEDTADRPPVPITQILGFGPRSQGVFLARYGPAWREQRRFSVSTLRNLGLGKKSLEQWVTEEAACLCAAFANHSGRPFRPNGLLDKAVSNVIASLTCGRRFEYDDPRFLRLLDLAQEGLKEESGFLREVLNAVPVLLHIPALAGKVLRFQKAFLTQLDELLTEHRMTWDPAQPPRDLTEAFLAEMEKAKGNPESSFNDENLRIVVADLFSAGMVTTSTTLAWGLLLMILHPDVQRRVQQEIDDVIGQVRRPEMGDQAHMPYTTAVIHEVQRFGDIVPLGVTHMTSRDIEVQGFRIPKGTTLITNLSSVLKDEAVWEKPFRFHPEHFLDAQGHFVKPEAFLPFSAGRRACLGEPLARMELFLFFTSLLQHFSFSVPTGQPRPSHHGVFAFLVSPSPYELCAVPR
# [33] = target: T6, Neuropeptides B/W receptor type 1 (Homo sapiens, UniProt P48145); experiment: Fluorescence-based dose response cell-based high throughput screening assay to identify antagonists of the G-protein coupled receptor 7 (GPR7). [Related pubchem assays: 1952 (Screening assay (GPR7 antagonists).), 1880 (Summary AID.)]; format: functional
# T6 sequence (P48145 whole entry): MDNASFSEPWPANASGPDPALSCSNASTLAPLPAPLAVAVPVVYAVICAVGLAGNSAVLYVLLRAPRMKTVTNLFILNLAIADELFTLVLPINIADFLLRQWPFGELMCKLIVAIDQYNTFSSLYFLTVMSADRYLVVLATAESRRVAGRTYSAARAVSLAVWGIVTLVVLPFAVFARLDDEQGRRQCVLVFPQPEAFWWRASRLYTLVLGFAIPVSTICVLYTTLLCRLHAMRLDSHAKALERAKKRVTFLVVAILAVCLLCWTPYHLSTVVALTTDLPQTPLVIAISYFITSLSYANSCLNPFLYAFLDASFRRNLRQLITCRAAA
# [34] = target: Melanin-concentrating hormone receptor 1 (Homo sapiens, UniProt Q99705); experiment: Fluorescence-based counterscreen for antagonists of the G-protein coupled receptor 7 (GPR7): cell-based high throughput dose response assay to identify antagonists of the melanin-concentrating hormone receptor 1 (MCHR1).; format: functional
# Sequence of Melanin-concentrating hormone receptor 1 (Q99705 whole entry): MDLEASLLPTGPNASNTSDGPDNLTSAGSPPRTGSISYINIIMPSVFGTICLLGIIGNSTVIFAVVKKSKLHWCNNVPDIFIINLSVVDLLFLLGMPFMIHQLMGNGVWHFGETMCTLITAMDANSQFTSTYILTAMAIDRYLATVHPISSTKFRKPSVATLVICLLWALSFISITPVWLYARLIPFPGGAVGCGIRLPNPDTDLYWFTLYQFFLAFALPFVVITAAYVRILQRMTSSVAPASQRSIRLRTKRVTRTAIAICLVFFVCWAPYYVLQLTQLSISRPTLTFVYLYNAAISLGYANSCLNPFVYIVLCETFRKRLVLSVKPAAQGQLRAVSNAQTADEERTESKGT
# Sequence of Peroxisome proliferator-activated receptor gamma/Nuclear receptor coactivator 3 (P37231 whole entry): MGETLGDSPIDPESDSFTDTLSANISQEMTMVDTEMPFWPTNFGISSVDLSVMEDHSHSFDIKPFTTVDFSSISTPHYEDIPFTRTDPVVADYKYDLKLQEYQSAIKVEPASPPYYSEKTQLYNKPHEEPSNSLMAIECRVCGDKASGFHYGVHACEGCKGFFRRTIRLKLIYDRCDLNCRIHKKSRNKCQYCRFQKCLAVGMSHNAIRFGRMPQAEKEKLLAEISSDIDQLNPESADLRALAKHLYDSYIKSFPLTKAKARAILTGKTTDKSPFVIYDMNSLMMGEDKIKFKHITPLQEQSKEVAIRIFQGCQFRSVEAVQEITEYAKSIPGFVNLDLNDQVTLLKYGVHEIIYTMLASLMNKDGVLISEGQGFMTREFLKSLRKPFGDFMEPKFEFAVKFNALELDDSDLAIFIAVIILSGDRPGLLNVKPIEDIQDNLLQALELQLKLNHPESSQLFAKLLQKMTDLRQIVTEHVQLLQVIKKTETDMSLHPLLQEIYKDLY
# Sequence of Peroxisome proliferator-activated receptor gamma/Nuclear receptor coactivator 3 (Q9Y6Q9 whole entry, further chain): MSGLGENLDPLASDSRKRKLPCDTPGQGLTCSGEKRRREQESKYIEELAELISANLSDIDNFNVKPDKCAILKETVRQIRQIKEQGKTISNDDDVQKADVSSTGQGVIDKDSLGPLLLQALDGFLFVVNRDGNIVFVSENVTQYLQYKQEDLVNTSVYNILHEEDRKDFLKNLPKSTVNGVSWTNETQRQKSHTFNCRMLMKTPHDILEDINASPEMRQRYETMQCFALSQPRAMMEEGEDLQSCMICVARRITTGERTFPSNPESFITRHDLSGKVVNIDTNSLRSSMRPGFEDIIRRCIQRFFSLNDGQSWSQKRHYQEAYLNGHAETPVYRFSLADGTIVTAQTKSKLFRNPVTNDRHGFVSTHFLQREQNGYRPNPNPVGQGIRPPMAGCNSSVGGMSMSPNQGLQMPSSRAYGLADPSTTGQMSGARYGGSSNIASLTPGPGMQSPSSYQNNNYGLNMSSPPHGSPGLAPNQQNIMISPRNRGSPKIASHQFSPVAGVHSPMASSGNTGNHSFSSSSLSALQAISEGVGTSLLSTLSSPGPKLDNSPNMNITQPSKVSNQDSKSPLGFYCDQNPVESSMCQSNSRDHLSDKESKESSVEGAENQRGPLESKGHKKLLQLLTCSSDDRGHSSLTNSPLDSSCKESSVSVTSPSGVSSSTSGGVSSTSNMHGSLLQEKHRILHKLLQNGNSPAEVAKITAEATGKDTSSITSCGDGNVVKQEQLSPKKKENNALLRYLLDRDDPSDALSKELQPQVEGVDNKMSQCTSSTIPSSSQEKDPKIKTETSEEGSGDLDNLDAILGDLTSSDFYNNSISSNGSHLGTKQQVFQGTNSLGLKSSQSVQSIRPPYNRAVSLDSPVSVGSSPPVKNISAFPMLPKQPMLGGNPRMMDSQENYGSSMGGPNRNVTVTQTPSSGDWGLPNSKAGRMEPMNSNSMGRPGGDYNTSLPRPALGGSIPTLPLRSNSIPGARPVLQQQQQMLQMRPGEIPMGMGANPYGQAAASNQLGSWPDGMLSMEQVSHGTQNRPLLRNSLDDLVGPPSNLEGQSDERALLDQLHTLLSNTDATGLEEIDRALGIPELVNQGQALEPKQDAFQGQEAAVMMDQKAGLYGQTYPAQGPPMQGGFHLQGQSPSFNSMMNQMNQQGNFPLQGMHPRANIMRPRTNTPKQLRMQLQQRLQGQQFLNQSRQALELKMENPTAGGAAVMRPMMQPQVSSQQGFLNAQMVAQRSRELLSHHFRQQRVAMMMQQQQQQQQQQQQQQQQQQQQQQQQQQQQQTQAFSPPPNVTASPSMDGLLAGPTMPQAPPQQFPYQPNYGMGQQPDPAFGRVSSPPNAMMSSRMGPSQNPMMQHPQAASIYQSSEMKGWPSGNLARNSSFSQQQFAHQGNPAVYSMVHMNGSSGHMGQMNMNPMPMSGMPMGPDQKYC
smiles,measurement,setting,value
O=C(CCN1C(=O)c2ccccc2C1=O)Nc1ccc(-c2nc3ccccc3o2)cc1,EC50,[1],> 79.4 µM (not active)
same,EC50,[2],74.4 µM (not active)
same,EC50,[3],71.6 µM (not active)
CCOC(=O)OCC1OC(c2ccc(C(C)=O)cc2)C=CC1Oc1ccc(-c2ccccc2)cc1 (centres undefined),AC50,[4],5.01 µM (inconclusive)
Cc1cc(C)c(NC(=O)c2oc3ccccc3c2COc2ccccc2)c(C)c1,EC50,[5],> 150 µM (not active)
same,EC50,[6],122 µM (active)
same,EC50,[7],6.21 µM (active)
CCCC/N=C/[C@]12CCC(O)CC1(O)CCC1[C@@H]2CC[C@]2(C)[C@H](C3C=CC(=O)O3)CCC12O (some centres undefined),EC50,[8],0.263 µM (active)
same,AC50,[9],55.4 µM (active)
same,EC50,[10],0.203 µM (active)
same,EC50,[11],0.45 µM (active)
same,IC50,[12],> 39.8 µM (not active)
same,IC50,[13],< 0.05 µM (active)
same,CC50,[14],0.96 µM (active)
same,EC50,[15],< 0.1 µM (active)
same,CC50,[16],1.27 µM (active)
same,EC50,[17],0.321 µM (active)
same,EC50,[18],0.238 µM (active)
same,EC50,[19],< 0.1 µM (active)
same,IC50,[20],> 80 µM (inactive)
same,EC50,[21],3.01 µM (inconclusive)
same,EC50,[22],0.538 µM (active)
same,EC50,[23],0.372 µM (active)
same,AC50,[24],2.19 µM (active)
same,EC50,[25],< 0.1 µM (active)
CCOc1ccc(/C=c2\sc3nc(-c4ccco4)nn3c2=O)cc1OCC,EC50,[26],> 300 µM (not active)
same,IC50,[27],48.8 µM (inactive)
same,IC50,[28],24.7 µM (not active)
same,IC50,[29],> 66 µM (inactive)
same,IC50,[30],> 50 µM (not active)
same,EC50,[31],> 300 µM (not active)
Cc1ccc(NCC(=O)N/N=C/c2ccc(OC(=O)c3ccco3)cc2)cc1,AC50,[32],15.8 µM (inconclusive)
same,IC50,[33],> 43.8 µM (not active)
same,IC50,[34],> 43.8 µM (not active)

# From ChEMBL document CHEMBL1201862, “PubChem BioAssay data set” (2004)
